The source of these data is ChEMBL document CHEMBL6182893, “Discovery of non-electrophilic TRPA1 channel agonists with anti-nociceptive effects via rapid current desensitization” (Eur J Med Chem, 2025).

For data set [1], the target named is T1, Transient receptor potential cation channel subfamily A member 1 (Homo sapiens, UniProt O75762). Briefly: Agonist activity at human TRPA1 expressed in HEK293T cells by whole cell patch clamp recordings. The data set is classed as cell-based. Background: The patch-clamp technique gives a direct electrical read-out from membranes.
Data set [2] is described as follows: Selectivity ratio of EC50 for agonist activity at mouse TRPA1 expressed in HEK293T cells to EC50 for agonist activity at human TRPA1 expressed in HEK293T cells. The data set is classed as cell-based.
Data set [3] in a line: Toxicity in wildtype C57BL/6J mouse assessed as irritation at 1 %, SC administered via hind paw and measured within 45 mins. To be noted: in vivo, 0.75 h.
Data set [4] can be described thus: Toxicity in wildtype C57BL/6J mouse assessed as irritation at 0.3 %, SC administered via hind paw and measured within 45 mins. The note with it: in vivo, 0.75 h.
In data set [5] the target is Transient receptor potential cation channel subfamily A member 1 (Mus musculus, UniProt Q8BLA8). Briefly: Agonist activity at mouse TRPA1 expressed in HEK293T cells by whole cell patch clamp recordings. In kind it is cell-based.
Data set [6] concerns Mus musculus. Briefly: Antinociceptive activity in TRPA1 knock-out mouse model of thermal pain assessed as increase in paw lick latency at 20 mg/kg, po preadministered for 30 mins followed by exposure to 55 degreeC and measured up to 4 hrs by hot plate test. The data set is classed as functional, organism-based.
Data set [7] deals with T1, Transient receptor potential cation channel subfamily A member 1. Put plainly: Irreversible binding affinity to TRPA1 (unknown origin). The note with it: filed as agonist.
Data set [8] has as its target Transient receptor potential cation channel subfamily A member 1 (Mus musculus) (UniProt Q8BLA8). Put plainly: Desensitization of mouse TRPA1 expressed in HEK293T cells assessed as time constant (tau) at 200 uM in presence of Ca2+ containing solution by whole cell patch clamp recording. The data set is classed as cell-based. The note with it: filed as agonist.
For data set [9], the target named is T1, Transient receptor potential cation channel subfamily A member 1. Briefly: Agonist activity at human TRPA1 expressed in HEK293T cells assessed as increase in channel opening by measuring single channel conductance at 30 uM in presence of A-967079 by single-channel recordings. The data set is classed as cell-based. The note with it: filed as agonist.
For data set [10] the target is unchanged. Briefly: Agonist activity at human TRPA1 expressed in HEK293T cells assessed as increase in channel opening by measuring open probability at 30 uM in presence of A-967079 by single-channel recordings. The data set is classed as cell-based. To be noted: filed as agonist.
Data set [11] has as its system Mus musculus. Put plainly: Antinociceptive activity in CFA-induced male C57BL/6J mouse model of inflammatory pain assessed as paw withdrawal mechanical threshold at 20 mg/kg, po challenged with CFA for 24 hrs followed by compound administration for 30 mins and measured after 1 hrs (reference value: 0.22 +/- 0.03 g). The data set is classed as functional. The note with it: time 1.5 hrs.

Data set [12] has as its system Mus musculus. Put plainly: Antinociceptive activity in wildtype female C57BL/6J mouse model of thermal pain assessed as paw withdrawal latency time at 20 mg/kg, po preadministered for 30 mins followed by exposure to 55 degreeC and measured after 120 mins by hot plate test (reference value: 15.65 +/- 1.22 sec). The note with it: time 150 min. In kind it is functional.

The test system of data set [13] is Mus musculus. Put plainly: Antinociceptive activity in wildtype female C57BL/6J mouse model of thermal pain assessed as paw withdrawal latency time at 20 mg/kg, po preadministered for 30 mins followed by exposure to 55 degreeC and measured immediately by hot plate test (reference value: 16.65 +/- 1.02 sec). In kind it is functional. To be noted: 0.5 h. (Hot-plate and tail-flick tests time the reaction to a heat stimulus.)

Data set [14] relates to Mus musculus. Briefly: Antinociceptive activity in acetic-acid induced wildtype male C57BL/6J mouse model of visceral pain assessed as reduction in abdominal writhing at 20 mg/kg, po preadministered for 30 mins followed by acetic acid challenge and measured after 15 mins. The data set is classed as functional, organism-based. Background: An intraperitoneal irritant provokes the stretching counted in writhing tests.

The test system of data set [15] is Mus musculus. Put plainly: Antinociceptive activity in CFA-induced male C57BL/6J mouse model of inflammatory pain assessed as paw withdrawal mechanical threshold at 20 mg/kg, po challenged with CFA for 24 hrs followed by compound administration for 30 mins and measured immediately (reference value: 0.47 +/ 0.14 g). In kind it is functional. The note with it: 0.5 h.

The subject of data set [16] is Mus musculus. Briefly: Antinociceptive activity in acetic-acid induced TRPA1 knock-out mouse model of visceral pain assessed as reduction in abdominal writhing at 20 mg/kg, po preadministered for 30 mins followed by acetic acid challenge and measured after 15 mins. In kind it is functional, organism-based.
In data set [17] the test system is Mus musculus. Briefly: Antinociceptive activity in wildtype female C57BL/6J mouse model of thermal pain assessed as paw withdrawal latency time at 20 mg/kg, po preadministered for 30 mins followed by exposure to 55 degreeC and measured after 4 hrs by hot plate test (reference value: 17.41 +/- 1.18 sec). The data set is classed as functional.
Data set [18] concerns Mus musculus. Briefly: Antinociceptive activity in CFA-induced male C57BL/6J mouse model of inflammatory pain assessed as paw withdrawal mechanical threshold at 20 mg/kg, po challenged with CFA for 24 hrs followed by compound administration for 30 mins and measured after 2 hrs (reference value: 0.55 +/- 0.13 g). In kind it is functional.
The subject of data set [19] is Mus musculus. Put plainly: Effect on mechanical allodynia in male C57BL/6J mouse assessed as paw withdrawal mechanical threshold at 20 mg/kg, po administered for 30 mins (reference value: 1.77 +/- 0.21 g). The data set is classed as functional. The note with it: 0.5 h.
Data set [20] concerns Mus musculus. Briefly: Antinociceptive activity in wildtype female C57BL/6J mouse model of thermal pain assessed as paw withdrawal latency time at 20 mg/kg, po preadministered for 30 mins followed by exposure to 55 degreeC and measured after 30 mins by hot plate test (reference value: 11.83 +/- 1.25 sec). The data set is classed as functional. The note with it: time 60 min, 1 h.

In data set [21] the test system is Mus musculus. Briefly: Antinociceptive activity in CFA-induced male C57BL/6J mouse model of inflammatory pain assessed as paw withdrawal mechanical threshold at 20 mg/kg, po challenged with CFA for 24 hrs followed by compound administration for 30 mins and measured after 0.5 hrs (reference value: 0.39 +/- 0.05 g). The note with it: time 1 hrs. In kind it is functional.

The subject of data set [22] is Mus musculus. Briefly: Antinociceptive activity in CFA-induced male C57BL/6J mouse model of inflammatory pain assessed as paw withdrawal mechanical threshold at 20 mg/kg, po challenged with CFA for 24 hrs followed by compound administration for 30 mins and measured after 4 hrs (reference value: 0.47 +/- 0.10 g). The data set is classed as functional.
In data set [23] the test system is Mus musculus. Put plainly: Antinociceptive activity in wildtype female C57BL/6J mouse model of thermal pain assessed as paw withdrawal latency time at 20 mg/kg, po preadministered for 30 mins followed by exposure to 55 degreeC and measured after 60 mins by hot plate test (reference value: 13.65 +/- 0.69 sec). The data set is classed as functional. To be noted: time 90 min, 1.5 h.

The source made the active and inactive calls.

T1 sequence (O75762 whole entry): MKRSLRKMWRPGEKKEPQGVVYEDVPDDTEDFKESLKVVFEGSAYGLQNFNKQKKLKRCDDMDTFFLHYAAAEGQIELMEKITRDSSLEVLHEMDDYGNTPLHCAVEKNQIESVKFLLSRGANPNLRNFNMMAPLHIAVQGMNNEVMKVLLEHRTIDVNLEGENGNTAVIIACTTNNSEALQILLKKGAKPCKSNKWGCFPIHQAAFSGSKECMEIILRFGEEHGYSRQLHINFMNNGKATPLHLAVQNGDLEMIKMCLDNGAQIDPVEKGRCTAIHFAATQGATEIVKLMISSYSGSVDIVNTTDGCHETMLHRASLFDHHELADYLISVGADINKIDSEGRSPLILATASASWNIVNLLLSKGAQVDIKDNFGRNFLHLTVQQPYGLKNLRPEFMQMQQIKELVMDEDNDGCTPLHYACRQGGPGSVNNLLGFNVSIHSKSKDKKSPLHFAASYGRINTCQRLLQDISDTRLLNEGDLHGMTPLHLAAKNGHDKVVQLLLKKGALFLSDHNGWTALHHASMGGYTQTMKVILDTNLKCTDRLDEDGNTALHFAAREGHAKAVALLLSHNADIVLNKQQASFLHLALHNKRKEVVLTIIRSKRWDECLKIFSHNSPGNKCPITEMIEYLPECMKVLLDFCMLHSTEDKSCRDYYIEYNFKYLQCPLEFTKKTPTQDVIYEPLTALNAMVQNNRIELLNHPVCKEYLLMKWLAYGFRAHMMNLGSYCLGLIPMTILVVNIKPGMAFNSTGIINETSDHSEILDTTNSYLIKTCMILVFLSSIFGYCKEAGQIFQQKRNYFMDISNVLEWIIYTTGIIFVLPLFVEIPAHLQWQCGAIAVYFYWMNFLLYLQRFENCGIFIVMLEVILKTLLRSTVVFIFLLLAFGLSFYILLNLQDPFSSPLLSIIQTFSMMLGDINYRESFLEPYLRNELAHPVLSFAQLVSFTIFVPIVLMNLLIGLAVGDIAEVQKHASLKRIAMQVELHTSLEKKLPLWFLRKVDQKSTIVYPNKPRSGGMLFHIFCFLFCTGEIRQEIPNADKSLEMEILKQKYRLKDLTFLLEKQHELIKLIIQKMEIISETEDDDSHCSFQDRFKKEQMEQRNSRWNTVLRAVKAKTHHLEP
Transient receptor potential cation channel subfamily A member 1 (Mus musculus), sequence (Q8BLA8 whole entry): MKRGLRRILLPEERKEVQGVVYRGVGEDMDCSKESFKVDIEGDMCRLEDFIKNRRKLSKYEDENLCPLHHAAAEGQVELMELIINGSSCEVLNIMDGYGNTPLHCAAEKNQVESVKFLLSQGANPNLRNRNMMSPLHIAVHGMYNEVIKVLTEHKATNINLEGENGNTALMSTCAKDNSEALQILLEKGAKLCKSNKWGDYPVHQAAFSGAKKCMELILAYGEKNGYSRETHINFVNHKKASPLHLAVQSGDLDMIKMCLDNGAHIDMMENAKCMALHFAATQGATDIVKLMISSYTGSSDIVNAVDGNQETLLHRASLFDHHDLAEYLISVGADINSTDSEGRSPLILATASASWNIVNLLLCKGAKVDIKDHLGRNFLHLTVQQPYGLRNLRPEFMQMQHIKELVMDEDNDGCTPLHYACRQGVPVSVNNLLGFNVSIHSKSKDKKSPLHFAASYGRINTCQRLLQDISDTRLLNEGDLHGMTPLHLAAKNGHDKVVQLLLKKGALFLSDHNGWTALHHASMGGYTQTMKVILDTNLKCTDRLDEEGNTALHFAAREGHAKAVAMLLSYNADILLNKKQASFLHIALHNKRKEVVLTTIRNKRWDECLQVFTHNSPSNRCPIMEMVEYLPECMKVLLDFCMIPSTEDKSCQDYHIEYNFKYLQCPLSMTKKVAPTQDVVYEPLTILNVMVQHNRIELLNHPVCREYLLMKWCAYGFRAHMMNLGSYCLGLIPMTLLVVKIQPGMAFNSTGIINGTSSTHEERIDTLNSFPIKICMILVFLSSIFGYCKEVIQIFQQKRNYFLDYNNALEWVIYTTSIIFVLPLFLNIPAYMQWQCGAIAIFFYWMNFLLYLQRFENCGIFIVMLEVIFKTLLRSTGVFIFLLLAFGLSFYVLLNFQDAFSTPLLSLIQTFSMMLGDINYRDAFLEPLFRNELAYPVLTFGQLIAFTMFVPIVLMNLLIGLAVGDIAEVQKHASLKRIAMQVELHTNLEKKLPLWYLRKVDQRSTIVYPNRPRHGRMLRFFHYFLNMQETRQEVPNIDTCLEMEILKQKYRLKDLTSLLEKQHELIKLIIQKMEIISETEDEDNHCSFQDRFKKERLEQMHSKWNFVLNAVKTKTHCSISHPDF
Transient receptor potential cation channel subfamily A member 1 (Mus musculus, UniProt Q8BLA8), sequence (Q8BLA8 whole entry): as above

In the case of `COCCCN(C(=O)CCl)c1nc(-c2ccc(OC)cc2)cs1`, the EC50 in data set [1] came to 6.48 nM; in data set [5], 5260 nM. For the same compound, the Ratio EC50 in data set [2] is 1000. Moreover, the Activity entry was “Toxic” in [3] and “Non-toxic” in data set [4]. In addition, the result in data set [6] was Active.
For the compound `CCCCCNc1nc(-c2ccc(O)cc2)cs1`, the result in data set [7] was Active.
With `COCCCNc1cc(-c2ccc(C)cc2)cs1`, the result in data set [7] was Active.
Turning to `S=C=NCc1ccccc1`, the TIME in data set [8] is 0.0179 h.
On to `C=CCN=C=S` [ALLYL ISOTHIOCYANATE], for which the Activity was 102 pS in data set [9], 0.15 in data set [10] and “Toxic” in [3].
For the compound `CC(C)Cc1ccc(C(C)C(=O)O)cc1` (stereo not given) [IBUPROFEN], the Activity is 1.32 g in data set [11]; 0.22 g in data set [15]; 0.69 g in data set [18]; 1.84 g in data set [19]; 1.2 g in data set [21]; 0.42 g in data set [22]. In addition, the Time came out at 15.46 s in data set [12]; 15.72 s in data set [13]; 14.03 s in data set [17]; 20.73 s in data set [20]; 31.26 s in data set [23]. Also, the outcome in data set [14] and in data set [16] was Active.

What is called EC50 is the concentration at which the effect is half-maximal. Low values mean a more potent agent, high ones a less potent agent.
